Experimental data as given in US7919454B2, “Methods of treating using conjugates transported by a PEPT2 transporter” (XenoPort, Inc., priority 2001, dated 2011).
Like-named read-outs stand apart in the source and are kept apart here. Non-standard residues stand in square brackets, D forms with d. Residues, ends and D or L forms follow the SMILES beside them. *: point of attachment. Dansyl = CN(C)c1cccc2c(S(=O)(=O)*)cccc12; Sar = CNCC(=O)O

What was measured:
[1] = target: T1, PEPT2 (Homo sapiens, UniProt Q16348, S640G); experiment: Transport currents (Vmax vs Gly-Sar) in Xenopus oocytes transfected with PEPT2, two-electrode voltage-clamp; assay type: cell-based; conditions: for Substrate preference PEPT2 versus PEPT1 (in words): comparison of PEPT2 and PEPT1 transfected oocytes
T1 construct: The complete open reading frame was cloned into a Xenopus oocyte expression plasmid; expressed in transfected cells; host or cells: Xenopus oocytes injected with cRNA
T1 sequence (Q16348 1-729 S640G): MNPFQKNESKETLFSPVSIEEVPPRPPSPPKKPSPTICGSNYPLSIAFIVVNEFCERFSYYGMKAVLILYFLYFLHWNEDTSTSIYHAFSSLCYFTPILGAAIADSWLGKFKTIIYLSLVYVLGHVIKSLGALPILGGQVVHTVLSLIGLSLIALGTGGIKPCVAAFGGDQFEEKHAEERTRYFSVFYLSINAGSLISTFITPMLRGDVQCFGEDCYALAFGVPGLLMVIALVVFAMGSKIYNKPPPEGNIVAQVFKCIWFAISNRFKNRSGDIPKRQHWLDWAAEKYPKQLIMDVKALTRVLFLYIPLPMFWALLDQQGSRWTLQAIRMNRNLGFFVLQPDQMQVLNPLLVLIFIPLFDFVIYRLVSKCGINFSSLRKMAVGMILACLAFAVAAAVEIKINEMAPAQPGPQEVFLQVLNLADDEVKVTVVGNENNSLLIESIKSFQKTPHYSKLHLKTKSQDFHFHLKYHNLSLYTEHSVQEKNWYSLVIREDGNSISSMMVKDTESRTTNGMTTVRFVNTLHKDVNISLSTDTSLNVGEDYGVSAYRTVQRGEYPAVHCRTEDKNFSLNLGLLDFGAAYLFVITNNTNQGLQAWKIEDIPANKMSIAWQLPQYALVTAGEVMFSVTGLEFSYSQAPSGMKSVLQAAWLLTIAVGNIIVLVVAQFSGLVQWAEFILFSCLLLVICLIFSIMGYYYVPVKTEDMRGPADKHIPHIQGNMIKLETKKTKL
Protocol: (§1) The complete open reading frame was cloned into a Xenopus oocyte expression plasmid, linearized, and cRNA was generated by run-off transcription using the T7 polymerase. Xenopus oocytes were prepared and maintained as previously described
(§2) Transport currents were measured 2-4 days after injection using two-electrode voltage-clamp (Axon Instruments). All experiments were performed using a modified oocyte Ringers solution (90 mM NaCl, 2 mM KCl, 1.8 mM CaCl2, 1 mM MgCl2, and 10 mM NaHEPES, pH 6.8). The membrane potential of oocytes was held at −60 mV and current traces acquired using PowerLab software. Responses to compounds were measured in the presence and absence of a specific non-transported inhibitor (XP10973) for PEPT1 and PEPT2. Data are expressed as the currents that are blocked by XP10973

[2] = tested on: Caco-2 cells; assay type: in vitro ADME
Protocol: Caco-2 cells were plated on Millipore transwell filters and allowed to differentiate for 18-22 days. Integrity of the monolayers was confirmed by lack of radiolabeled inulin transport across the monolayer. Compounds were added to the apical chamber, and the appearance of compounds in the basolateral chamber were measured at various timepoints by scintillation counting or LC/MS/MS.
FIGS. 1 and 2 show uptake of cephradine and cefadroxil by Caco-2 cells in the presence and absence of XP10973 inhibitor. […] However, as described above, cephradine and cefadroxil are poor substrates for PEPT1 and good substrates for PEPT2.

[3] = target: T2, PEPT1 (Homo sapiens, UniProt P46059); experiment: Transport currents (Vmax vs Gly-Sar) in Xenopus oocytes transfected with PEPT1, two-electrode voltage-clamp; assay type: cell-based; conditions: for Substrate quality for PEPT1 relative to Gly-Sar (in words): cells transfected with PEPT1; for PEPT1 (% Gly-Sar) drug only (Vmax) / PEPT1 (% Gly-Sar) +XP10973 (Vmax): oocytes transfected with PEPT1; for PEPT1 (% Gly-Sar) +XP10973 (Vmax): in the presence of inhibitor XP10973
T2 construct: The complete open reading frame was cloned into a Xenopus oocyte expression plasmid; expressed in transfected cells; host or cells: Xenopus oocytes injected with cRNA
T2 sequence (P46059 1-708): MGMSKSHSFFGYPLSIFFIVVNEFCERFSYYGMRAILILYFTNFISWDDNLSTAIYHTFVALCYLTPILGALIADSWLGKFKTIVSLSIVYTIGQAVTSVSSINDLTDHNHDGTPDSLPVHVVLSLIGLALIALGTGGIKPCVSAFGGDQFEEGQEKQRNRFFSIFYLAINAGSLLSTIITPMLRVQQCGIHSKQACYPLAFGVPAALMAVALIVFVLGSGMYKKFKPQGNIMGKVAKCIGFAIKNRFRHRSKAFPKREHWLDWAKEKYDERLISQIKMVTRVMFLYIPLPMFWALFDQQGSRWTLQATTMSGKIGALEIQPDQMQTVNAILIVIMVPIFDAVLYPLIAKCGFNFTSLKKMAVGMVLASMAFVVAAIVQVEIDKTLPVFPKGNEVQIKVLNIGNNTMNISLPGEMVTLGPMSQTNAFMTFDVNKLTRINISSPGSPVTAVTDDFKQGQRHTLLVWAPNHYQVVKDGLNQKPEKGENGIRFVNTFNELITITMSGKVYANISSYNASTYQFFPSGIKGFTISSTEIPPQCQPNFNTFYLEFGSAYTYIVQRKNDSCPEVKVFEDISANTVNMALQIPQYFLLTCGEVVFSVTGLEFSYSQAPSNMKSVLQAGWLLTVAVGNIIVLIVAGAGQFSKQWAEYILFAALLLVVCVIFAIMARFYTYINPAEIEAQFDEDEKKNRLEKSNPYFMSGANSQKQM
Protocol: as §1
as §2, with “(Collins, et al., 1997) and injected with 10-30 ng RNA. Transport” for “Transport”

[4] = oocytes transfected with PEPT2, drug only
[5] = oocytes transfected with PEPT2, in the presence of inhibitor XP10973

Row | Structure (SMILES) | Substrate quality for PEPT2 relative to Gly-Sar (in words) ([1]; cells transfected with PEPT2) | Substrate preference PEPT2 versus PEPT1 (in words) [1] | PEPT2 (% Gly-Sar) drug only (Vmax) [1, 4] | PEPT2 (% Gly-Sar) +XP10973 (Vmax) [1, 5] | Uptake by Caco-2 cells (in words) [2] | Substrate quality for PEPT1 relative to Gly-Sar (in words) [3] | PEPT1 (% Gly-Sar) drug only (Vmax) [3] | PEPT1 (% Gly-Sar) +XP10973 (Vmax) [3] | Inhibition of PEPT2 transport (in words) [1] | Inhibition of PEPT1 transport (in words) [3] | PEPT2 (% Gly-Sar) +XP10973 (Vmax) [1] | PEPT2 (% Gly-Sar) drug only (Vmax) [1] | Substrate quality for PEPT2 relative to Gly-Sar (in words) [1]
1 | CC1=C(C(=O)O)N2C(=O)[C@@H](NC(=O)[C@H](N)c3ccc(O)cc3)[C@H]2SC1 [Cephadroxil, cefadroxil] | relatively good substrates | better substrates for PEPT2 than they are for PEPT1 | 96 % Gly-Sar | 27 % Gly-Sar | taken up | relatively poor susbstrates | 18 % Gly-Sar | 2.1 % Gly-Sar |  |  |  |  | 
2 | N[C@@H](C(=O)N[C@@H]1C(=O)N2C(C(=O)O)=C(Cl)CS[C@H]12)c1ccccc1 [Cefaclor, cefaclor] | relatively good substrates | better substrates for PEPT2 than they are for PEPT1 | 148 % Gly-Sar | 22 % Gly-Sar |  | relatively poor susbstrates | 4 % Gly-Sar | 1.6 % Gly-Sar |  |  |  |  | 
3 | CC(C)C[C@H](NC(=O)[C@@H](N)CCCCNS(=O)(=O)c1cccc2c(N(C)C)cccc12)C(=O)O [XP10973] (H-Lys(Dansyl)-Leu-OH) |  |  |  |  |  |  |  |  | specific inhibitor | specific inhibitor |  |  | 
4 | CN(CC(=O)O)C(=O)CN [Gly-Sar] (H-Gly-[Sar]-OH) |  |  | 100 % Gly-Sar | 12 % Gly-Sar |  |  | 100 % Gly-Sar | 16 % Gly-Sar |  |  |  |  | 
5 | CC1(C)S[C@@H]2[C@H](NC(=O)[C@H](N)c3ccc(O)cc3)C(=O)N2[C@H]1C(=O)O [Amoxacillin, amoxacillin] |  |  |  |  |  | relatively poor susbstrates | 1.3 % Gly-Sar | 1.1 % Gly-Sar |  |  | 15 % Gly-Sar | 85 % Gly-Sar | relatively good substrates
6 | CC1=C(C(=O)O)N2C(=O)[C@@H](NC(=O)[C@H](N)C3=CCC=CC3)[C@H]2SC1 [Cephradine, cephradine] | relatively good substrates | better substrates for PEPT2 than they are for PEPT1 | 159 % Gly-Sar | 37 % Gly-Sar | taken up | relatively poor susbstrates | 3.5 % Gly-Sar | 1.9 % Gly-Sar |  |  |  |  | 
